Like-named read-outs stand apart in the source and are kept apart here.
Assays:
[1] = tested on: MV4;11 leukemia xenografts; assay: Antitumor efficacy in MV4;11 leukemia xenografts; format: in vivo, female CD-1 nu/nu strain mice; settings: vehicle control 233 ± 23.2
Experimental: Cultured cells (ATCC) are implanted subcutaneously in the rear flank of female CD-1 nu/nu strain mice which have been acclimated for one week in the animal facility after receipt from the vendor. […] The tumors are measured 2 times per week by electronic calipers to plot growth curves. Animals are also monitored for fluctuations in body weight and survival.

Jurkat [2] = assay: Reduction in cell viability (CellTiter-Glo Luminescent Cell Viability Assay); format: cell-based, human; settings: 48 hrs, read-out: Reduction in cell viability after treatment - EC50 (mean of triplicates)
Experimental: (§1) Cell viability is determined by the CellTiter-Glo® Luminescent Cell Viability Assay (Promega, Catalog #G7570) which is a method of estimating viable cell number based on quantitation of ATP in metabolically active cells. After cells are lysed, the mono-oxygenation of the substrate luciferin is catalyzed by the enzyme luciferase in the presence of Mg2+, ATP and molecular oxygen, resulting in the generation of a luminescent signal that is proportional to the number of viable cells in the assay wells.
(§2) To measure the viability of cells after treatment with compounds, tumor cells are plated at 2×10^4 per well in 96 well plates and incubated overnight at 37° C., with 5% CO2. Tumor cells are treated with test compound at desired concentrations in triplicate, including untreated/negative control cells. The assay plates are re-incubated for 48 hrs. At the end of the incubation period, a mixture of lysis assay buffer and substrate is added to each sample well. The luminescence in each well is measured using a microtiter plate luminometer.
(§3) MV4;11 is a human acute myeloid leukemia line characterized by the presence of a fusion transcript comprised of the MLL and AF4 genes and by the presence of an internal tandem duplication in the juxtamembrane region of the FLT-3 gene. RS4;11 is a human acute lymphoid leukemia cell line characterized by the presence of a fusion transcript comprised of the MLL and AF4 genes. REH is a human acute lymphoid leukemia (non-T; non-B) cell line characterized by the presence of a fusion transcript comprised of the TEL and AML1 genes. Kasumi 1 is a human acute myeloid leukemia line characterized by the presence of a fusion transcript comprised of the AML1 and ETO genes. K562 is a human chronic myelogenous leukemia cell line characterized by the presence of a fusion transcript comprised of the Bcr and Abl genes. […] Jurkatt is a human acute T-cell leukemia cell line. Each of the cell lines are obtained from the American Type Culture Collection (ATCC).

Kasumi = assay: as above; format: cell-based, human; settings: 48 hrs, read-out: Reduction in cell viability after treatment - EC50 (mean of triplicates)
Experimental: as §1, §2, §3

RS4;11 [3] = assay: as above; format: cell-based, human; settings: 48 hrs, read-out: Reduction in cell viability after treatment - EC50 (mean of triplicates)
Experimental: as §1, §2, §3

REH [4] = assay: as above; format: cell-based, human; settings: 48 hrs, read-out: Reduction in cell viability after treatment - EC50 (mean of triplicates)
Experimental: as §1, §2, §3

MV4;11 [5] = assay: as above; format: cell-based, human; settings: 48 hrs, read-out: Reduction in cell viability after treatment - EC50 (mean of triplicates)
Experimental: as §1, §2, §3

HEL 92.1.7 [6] = assay: as above; format: cell-based, human; settings: 48 hrs, read-out: Reduction in cell viability after treatment - EC50 (mean of triplicates)
Experimental: as §1, §2, §3

K562 [7] = assay: as above; format: cell-based, human; settings: 48 hrs, read-out: Reduction in cell viability after treatment - EC50 (mean of triplicates)
Experimental: as §1, §2, §3

Jurkat [8] = assay: Caspase 3 activity (Apo-ONE Homogeneous Caspase-3/7 Assay); format: cell-based, human; settings: relative to untreated controls
Source text: (§4) Apoptosis or programmed cell death is characterized by a set of biochemical reactions, one of which is the induction of caspases. Activated caspases are proteases that participate in a cascade of cleavage events that disable key enzymes responsible for cell homeostasis and repair. Caspases 3 and 7 play key effector roles in apoptosis and can be detected and measured by a fluorescent biochemical assay. The increase of Caspase-3/7 activity in cells is directly correlated to apoptotic activity. (D. W. Nicholson, et al., Nature, 376, 37-43 (1995)) The Promega Apo-ONE Homogeneous Caspase-3/7 Assay Kit is used (Catalog #G7791). The assay buffer consists of 30 mM HEPES (N-(2-hydroxyethyl)piperazine-N′-(2-ethanesulfonic acid) pH 7.4, 150 mM NaCl, 50 mM KCl, 10 mM MgCl2, 0.4 mM EGTA (ethylene glycol tetraacetic acid), 0.5% Nonidet P40 (octylphenolpoly(ethyleneglycol ether)), 0.1% CHAPS (3-[(3-Cholamidopropyl)dimethylammonio]-1-propanesulfonate hydrate and 10% sucrose, which lyses/permeabilizes cultured cells and a caspase 3/7 substrate, Z-DEVD (Z-Asp(OMe)-Glu(OMe)-Val-Asp(OMe)), coupled to a profluorescent rhodamine 110. When the buffer-substrate mixture is added to a test sample, the cleavage and subsequent removal of the DEVD peptides by caspase 3/7 activity results in intense fluorescence of the rhodamine 110 leaving group, which is detected by excitation at 490 nm. The amount of fluorescent product is proportional to the amount of caspase 3/7 cleavage activity in the sample.
(§5) To measure the apoptotic effect of test compounds, tumor cells are plated at 1×10^4 cells per well in 96 well plates and incubated overnight at 37° C., with 5% CO2. Tumor cells are treated with test compound at desired concentrations in triplicate, including untreated/negative control wells. The assay plates are re-incubated for 48 hrs. At the end of the incubation period, a mixture of the assay buffer and substrate is added to each sample well. The fluorescence in each well is measured at an excitation wavelength of 480+/−20 nm and an emission wavelength of 530+/−25 nm. The % increase of caspase activity in treated cells is calculated relative to untreated controls.
(§6) MV4;11 is a human acute myeloid leukemia line characterized by the presence of a fusion transcript comprised of the MLL and AF4 genes and by the presence of an internal tandem duplication in the juxtamembrane region of the FLT-3 gene. RS4;11 is a human acute lymphoid leukemia cell line characterized by the presence of a fusion transcript comprised of the MLL and AF4 genes. REH is a human acute lymphoid leukemia (non-T; non-B) cell line characterized by the presence of a fusion transcript comprised of the TEL and AML1 genes. Kasumi 1 is a human acute myeloid leukemia line characterized by the presence of a fusion transcript comprised of the AML1 and ETO genes. K562 is a human chronic myelogenous leukemia cell line characterized by the presence of a fusion transcript comprised of the Bcr and Abl genes. HEL 92.1.7 is a human erythroleukemia cell line characterized by the presence of a V617F mutation in the JAK2 gene. Jurkatt is a human acute T-cell leukemia cell line. Each of the cell lines are obtained from the American Type Culture Collection (ATCC). In the following tables the term “Compound 1” or “Cmpd 1” means 7-(2,5-dihydro-4-imidazo[1,2-a]pyridine-3-yl-2,5-dioxo-1H-pyrrol-3-yl)-9-fluoro-1,2,3,4-tetrahydro-2-(1-piperidinyl-carbonyl)-pyrrolo[3,2,1-jk][1,4]benzodiazepine. The GSK-3 inhibitor [(3-(2,4-dichlorophenyl)-4-(1-methyl-1H-indol-3-yl)-1H-pyrrole-2,5-dione (SB216763), Sigma-Aldrich is used as a positive comparator control in some experiments. The compound GSK-3 Inhibitor IX, (2′Z,3′E)-6-bromoindirubin-3′-oxime (“GSK3-IX”) Calbiochem, is used as a positive control in some experiments. Both SB216763 and GSK3-IX are mentioned in the Wang et al., Nature, 455, 1205-1210 (2008) paper as evidencing positive results. […]

Kasumi 1 = assay: as above; format: cell-based, human; settings: relative to untreated controls
Source text: as §4, §5, §6

RS4;11 [9] = assay: as above; format: cell-based, human; settings: relative to untreated controls
Source text: as §4, §5, §6

REH [10] = assay: as above; format: cell-based, human; settings: relative to untreated controls
Source text: as §4, §5, §6

MV4;11 [11] = assay: as above; format: cell-based, human; settings: relative to untreated controls
Source text: as §4, §5, §6

HEL 92.1.7 [12] = assay: as above; format: cell-based, human; settings: relative to untreated controls
Source text: as §4, §5, §6

K562 [13] = assay: as above; format: cell-based, human; settings: relative to untreated controls
Source text: as §4, §5, §6

Nc1ccn([C@@H]2O[C@H](CO)[C@@H](O)[C@@H]2O)c(=O)n1 [Arabinosylcytosine]
Tumor Volume at day 33 Mean ± Standard Error ([1]; 30 mg/kg IP administered every day for 14 days): 129 ± 11.2 mm^3

O=C1NC(=O)C(c2cnc3ccccn23)=C1c1cn2c3c(cc(F)cc13)CN(C(=O)N1CCCCC1)CC2 [Compound 1, 7-(2,5-dihydro-4-imidazo[1,2-a]pyridine-3-yl-2,5-dioxo-1H-pyrrol-3-yl)-9-fluoro-1,2,3,4-tetrahydro-2-(1-piperidinyl-carbonyl)-pyrrolo[3,2,1-jk][1,4]benzodiazepine]
Tumor Volume at day 33 Mean ± Standard Error ([1]; 0.1 mg/kg IV administered twice a week, 6 cycles): 189 ± 22.3 mm^3
Tumor Volume at day 33 Mean ± Standard Error ([1]; 1 mg/kg IV administered twice a week, 6 cycles): 154 ± 15 mm^3
Tumor Volume at day 33 Mean ± Standard Error ([1]; 5 mg/kg IV administered once a week, three cycles): 167 ± 11.7 mm^3
EC50 (Jurkat [2]; Homo sapiens): 46 nM
EC50 (Kasumi; Homo sapiens): 16 nM
EC50 (RS4;11 [3]; Homo sapiens): 5 nM
EC50 (REH [4]; Homo sapiens): 6 nM
EC50 (MV4;11 [5]; Homo sapiens): 82 nM
EC50 (HEL 92.1.7 [6]; Homo sapiens): 0.034 µM
EC50 (K562 [7]; Homo sapiens): 0.046 µM
% Increase in Caspase 3 after treatment with Cmpd 1 (mean of triplicates) (Jurkat [8]; 0.370 μM Compound 1, 48 hrs): 140%
% Increase in Caspase 3 after treatment with Cmpd 1 (mean of triplicates) (Kasumi 1; 0.370 μM Compound 1, 48 hrs): 133%
% Increase in Caspase 3 after treatment with Cmpd 1 (mean of triplicates) (RS4;11 [9]; 0.009 μM Compound 1, 48 hrs): 111%
% Increase in Caspase 3 after treatment with Cmpd 1 (mean of triplicates) (REH [10]; 0.0007 μM Compound 1, 48 hrs): 132%
% Increase in Caspase 3 after treatment with Cmpd 1 (mean of triplicates) (MV4;11 [11]; 0.010 μM Compound 1, 48 hrs): 188%
% Increase in Caspase 3 after treatment with Cmpd 1 (mean of triplicates) (HEL 92.1.7 [12]; 0.120 μM Compound 1, 48 hrs): 284%
% Increase in Caspase 3 after treatment with Cmpd 1 (mean of triplicates) (K562 [13]; 0.0007 μM Compound 1, 48 hrs): 1057%

O=C1Nc2cc(Br)ccc2/C1=C1/Nc2ccccc2/C1=N\O [GSK3-IX, (2′Z,3′E)-6-bromoindirubin-3′-oxime]
EC50 (Jurkat [2]): > 3300 nM
EC50 (Kasumi): 1200 nM
EC50 (RS4;11 [3]): 300 nM
EC50 (REH [4]): 1100 nM
EC50 (MV4;11 [5]): 200 nM
EC50 (HEL 92.1.7 [6]): > 3.3 µM
EC50 (K562 [7]): > 3.3 µM

Cn1cc(C2=C(c3ccc(Cl)cc3Cl)C(=O)NC2=O)c2ccccc21 [SB216763, 3-(2,4-dichlorophenyl)-4-(1-methyl-1H-indol-3-yl)-1H-pyrrole-2,5-dione]
EC50 (Jurkat [2]; Homo sapiens): > 10000 nM
EC50 (Kasumi; Homo sapiens): 10000 nM
EC50 (RS4;11 [3]; Homo sapiens): 4400 nM
EC50 (REH [4]; Homo sapiens): 4200 nM
EC50 (MV4;11 [5]; Homo sapiens): 12600 nM
EC50 (HEL 92.1.7 [6]; Homo sapiens): 11.3 µM
EC50 (K562 [7]; Homo sapiens): 20 µM
% Increase in Caspase 3 after treatment with SB216763 (mean of triplicates) (Jurkat [8]; 10 μM SB216763, 48 hrs): 101%
% Increase in Caspase 3 after treatment with SB216763 (mean of triplicates) (Kasumi 1; 10 μM SB216763, 48 hrs): 27%
% Increase in Caspase 3 after treatment with SB216763 (mean of triplicates) (RS4;11 [9]; 20 μM SB216763, 48 hrs): 117%
% Increase in Caspase 3 after treatment with SB216763 (mean of triplicates) (REH [10]; 20 μM SB216763, 48 hrs): 113%
% Increase in Caspase 3 after treatment with SB216763 (mean of triplicates) (MV4;11 [11]; 30 μM SB216763, 48 hrs): 83%
% Increase in Caspase 3 after treatment with SB216763 (mean of triplicates) (HEL 92.1.7 [12]; 10 μM SB216763, 48 hrs): 250%
% Increase in Caspase 3 after treatment with SB216763 (mean of triplicates) (K562 [13]; 20 μM SB216763, 48 hrs): 223%
